Experimental data as given in US6861432B2, “Piperazine derivatives that destabilize androgen receptors” (Schering Aktiengesellschaft, priority 2001, dated 2005).

Experiments:
androgen receptor = biological target: T1, androgen receptor (Homo sapiens, UniProt P10275, T878A); test: cell-based; details: LNCaP, 48 h
T1 construct: 2*10^6 LNCaP cells in 6 ml of RPMI 1640 without phenol red are grown; endogenous in cells; host or cells: LNCaP (human prostate cell line)
T1 sequence (P10275 1-920 T878A): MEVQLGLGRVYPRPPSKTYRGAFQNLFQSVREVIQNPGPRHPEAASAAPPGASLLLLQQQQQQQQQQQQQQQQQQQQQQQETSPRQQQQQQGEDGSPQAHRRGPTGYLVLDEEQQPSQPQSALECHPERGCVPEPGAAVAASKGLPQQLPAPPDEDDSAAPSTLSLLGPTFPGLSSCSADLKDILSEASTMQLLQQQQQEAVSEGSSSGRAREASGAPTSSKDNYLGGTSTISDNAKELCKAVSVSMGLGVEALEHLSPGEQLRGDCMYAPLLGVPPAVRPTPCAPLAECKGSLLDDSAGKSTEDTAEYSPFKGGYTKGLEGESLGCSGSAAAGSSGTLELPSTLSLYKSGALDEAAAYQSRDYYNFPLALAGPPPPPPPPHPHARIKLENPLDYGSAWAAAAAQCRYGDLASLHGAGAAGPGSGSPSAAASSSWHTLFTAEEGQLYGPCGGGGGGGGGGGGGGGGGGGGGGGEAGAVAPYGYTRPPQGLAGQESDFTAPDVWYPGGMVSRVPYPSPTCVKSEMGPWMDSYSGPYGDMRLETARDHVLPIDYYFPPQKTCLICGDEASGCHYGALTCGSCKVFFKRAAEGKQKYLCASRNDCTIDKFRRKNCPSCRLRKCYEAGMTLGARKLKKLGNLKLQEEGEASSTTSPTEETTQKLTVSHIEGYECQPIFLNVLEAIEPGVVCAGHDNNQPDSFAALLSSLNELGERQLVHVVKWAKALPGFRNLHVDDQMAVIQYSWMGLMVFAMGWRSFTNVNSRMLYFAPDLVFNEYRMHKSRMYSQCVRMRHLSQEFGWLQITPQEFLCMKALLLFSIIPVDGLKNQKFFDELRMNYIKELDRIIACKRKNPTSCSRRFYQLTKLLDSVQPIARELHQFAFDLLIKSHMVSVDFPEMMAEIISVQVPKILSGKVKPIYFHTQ

LNCaP prostate cancers = test: Model 5: Growth of human prostate cancer xenografts in vivo, LNCaP; details: hairless mice with testosterone pellets, 2 × daily s.c. 30 mg/kg, FIG. 1
Description: (§1) In this invention, the action of Example 117 according to the invention: 4-[2,5-dihydro-3-methyl-4-[4-[4-(methylsulfonyl)piperazin-1-yl]butyl]-2,5-dioxo-1H-pyrrol-1-yl]-2-(trifluoromethyl)benzonitrile on the tumor growth in vivo was studied by means of mouse-xenograft modules, in which the compound according to the invention was continuously administered subcutaneously.
(§2) The CWR22 tumor model [M. A. Wainstein, F. He, D. Robinson, H. J. Kung, S. Schwartz, J. M. Giaconia, N. L. Edgehouse, T. P. Pretlow, D. R. Bodner, E. D. Kursh, Cancer Res. 1994, 1; 54(23), 6049-52] is a hormone-dependent human prostate carcinoma model. The tumor model was established and further propagated by “scrial passaging” of prostate cancer tissue, which was removed during an OP in immunodeficient hairless mice. The androgen-dependent LNCaP prostate cancer model was also established from a patient tumor. This tumor model grows both in cell culture and as a xenotransplant on immunodeficient mice (Culig, Hoffman Brit. J. Cancer, 1999, 242-251). For therapy tests, 6-week-old male hairless mice (NMRI mice, M&B, Bornholdtgard, Denmark) were supplemented with testosterone pellets (12.5 mg, 90-day release; IRA, Sarasota, Fla.). Either LNCaP cells (1.5×10^6 cells) or small CWR22 tumor fragments (2×2 mm) were implanted subcutaneously in the left flank of the animals. After the tumors reached a size of 20-25 mm^2, the treatment with the invention substance was begun. [M. A. Wainstein, F. He, D. Robinson, H. J. Kung, S. Schwartz, J. M. Giaconia, N. L. Edgehouse, T. P. Pretlow, D. R. Bodner, E. D. Kursch, Cancer Res. 1994, 1; 54(23), 6049-52].

MaTu cells = test: Model 3: Proliferation of non-prostate cells, MaTu; assay type: cell-based, human; details: 10 μM, 3-day treatment; percent of cell growth of solvent control
Procedure: (§3) To examine the growth-inhibiting action of test substances in cells that are not of prostatic origin, MaTu cells, MaTu/Adr cells, HaCaT cells and A431 cells were treated with test substances, whereby
(§4) Depending on the cell line, 1000-4000 cells/well were grown in RPMI 1640 medium (A431; MaTu and MaTu/Adr) or DMEM/HAM'SF12 medium (HaCaT) without phenol red with 2 mmol of L-glutamine and 10% CCS, and after a 24-hour incubation, they were treated with various concentrations of test substances diluted in culture medium. After a 3-day treatment period, the number of cells was determined by crystal violet assay, as in Model 2. The solvent control contained 0.1% ethanol.
(§5) The substances were tested at a concentration of 10 μM, and the data correspond to the proportion, in percent, of the cell growth of the solvent control. It turns out that the test substances exerted no inhibitory action on the four different cell lines or, in individual cases, only a slight inhibitory action.

CWR22 prostate cancers = test: Model 5: Growth of human prostate cancer xenografts in vivo, CWR22; details: hairless mice with testosterone pellets, 2 × daily s.c. 30 mg/kg, FIG. 2
Description: as §1, §2

HaCaT cells = test: Model 3: Proliferation of non-prostate cells, HaCaT; assay type: cell-based, human; details: 10 μM, 3-day treatment, percent of cell growth of solvent control
Procedure: as §3, §4, §5

MaTu/Adr cells = test: Model 3: Proliferation of non-prostate cells, MaTu/Adr; assay type: cell-based, human; details: 10 μM, 3-day treatment, percent of cell growth of solvent control
Procedure: as §3, §4, §5

A431 cells = test: Model 3: Proliferation of non-prostate cells, A431; assay type: cell-based, human; details: 10 μM, 3-day treatment, percent of cell growth of solvent control
Procedure: as §3, §4, §5

seminal vesicles = test: Model 4: Antiandrogenic action on testosterone-stimulated growth of accessory sexual glands of castrated mice; assay type: in vivo; details: testosterone propionate 0.03 mg/mouse, test substance 2 × 30 mg/kg s.c., 7 days, CPA 30 mg/kg s.c., bicalutamide from preceding tests
Procedure: The function and the size of accessory sexual glands (prostate and seminal vesicles) depend on androgens. In castrated animals, a growth of these (organs is induced by androgen administration. The simultaneous treatment with antiandrogens inhibits this growth, depending on the dose.
To examine the test substances, the mice were castrated. The treatment with testosterone propionate (0.03 mg/mouse) and the test substances (formulated 2×daily 30 mg/kg s.c. in benzyl benzoate-castor oil (10:90)) was on the same day. The treatment was carried out over 7 days and at the end of the test, the weights of the seminal vesicles and prostates were determined. The inhibition, in percent, of the seminal vesicle growth was calculated relative to the control groups (with and without testosterone). As a reference substance, cyproterone acetate (30 mg/kg s.c.) was used.

LNCaP cells = test: Model 2: Inhibition of the proliferation of LNCaP cells (crystal violet assay; antagonism with 0.1 nM R1881, agonism without); assay type: cell-based, human
[1] = listed as invention substance, 30 mg/kg
[2] = listed as substance B, 30 mg/kg

Row | IC50 (LNCaP cells; Homo sapiens, LNCaP proliferation in the presence of 0.1 nM R1881, 7-8 days, read-out: IC50 [10^−7 M]) | Structure (SMILES) | remaining activity at 1 µM (androgen receptor; read-out: AR Content [%] At 1 μM) | remaining activity at 10 µM (androgen receptor; read-out: AR Content [%] At 10 μM) | growth inhibition of LNCaP prostate cancers (LNCaP prostate cancers; [1]) | growth inhibition of LNCaP prostate cancers (LNCaP prostate cancers; [2]) | Proliferation in the Cell Line MaTu (MaTu cells) | growth inhibition of CWR22 prostate cancers (CWR22 prostate cancers; [1]) | growth inhibition of CWR22 prostate cancers (CWR22 prostate cancers; [2]) | Proliferation in the Cell Line HaCaT (HaCaT cells) | Proliferation in the Cell Line MaTu/Adr (MaTu/Adr cells) | Proliferation in the Cell Line A431 (A431 cells) | % Inhibition of the MSB Growth (seminal vesicles) | growth inhibition of LNCaP prostate cancers (LNCaP prostate cancers) | growth inhibition of CWR22 prostate cancers (CWR22 prostate cancers) | Proliferation in the Cell Line HaCaT (HaCaT cells; listed as bicalutamide) | inhibition at 1 µM (LNCaP cells; Homo sapiens, LNCaP, LNCaP proliferation, 1 μM substance, compared to cell growth in the presence of 0.1 nM R1881) | % Inhibition at 1 μM (LNCaP cells; LNCaP proliferation, 1 μM substance, compared to cell growth in the presence of 0.1 nM R1881) | Proliferation in the Cell Line MaTu/Adr (MaTu/Adr cells; listed as bicalutamide) | Proliferation in the Cell Line A431 (A431 cells; listed as bicalutamide)
1 |  | CC1=C(CCCCN2CCN(S(C)(=O)=O)CC2)C(=O)N(c2ccc(C#N)c(C(F)(F)F)c2)C1=O [Example 117, 4-[2,5-Dihydro-3-methyl-4-[4-[4-(methylsulfonyl)piperazin-1-yl]butyl]-2,5-dioxo-1H-pyrrol-1-yl]-2-(trifluoromethyl)benzonitrile] | 57% | 36% | considerable growth inhibition | superior in comparison to treatment with the antiandrogen bicalutamide | 103 ± 10% | considerable growth inhibition | superior in comparison to treatment with the antiandrogen bicalutamide | 104 ± 6% | 94 ± 4% | 100 ± 5% |  |  |  |  |  |  |  | 
2 | 380 nM | CC(O)(CS(=O)(=O)c1ccc(F)cc1)C(=O)Nc1ccc(C#N)c(C(F)(F)F)c1 (centres unmarked) [Bicalutamide, N-[4-cyano-3-(trifluoromethyl)phenyl]-3-[(4-fluorophenyl)sulfonyl]-2-hydroxy-2-methylpropanamide, reference compound] |  |  |  |  | 97 ± 3% |  |  | 92 ± 3% | 84 ± 6% | 89 ± 7% | 86% | growth inhibition | growth inhibition | slight inhibition | 85% | 84.6% | slight inhibition | slight inhibition
